Laboratory results published in article PMC4492764, “Evaluation of biomarkers for in vitro prediction of drug-induced nephrotoxicity: comparison of HK-2, immortalized human proximal tubule epithelial, and primary cultures of human proximal tubular cells” (Pharmacology Research & Perspectives, 2015).
Structures can show the parent of a compound that is named as a salt.

Experiments:
[1] = MTT cytotoxicity assay in HK-2 cells; format: cell-based, human; conditions: human, HK-2 cells; 72 h incubation; Mean ± Standard deviation, n = 3
Description: (§1) For the MTT assay, the medium was then removed, the dried crystals were resuspended in 60 μL of Dimethyl sulfoxide (DMSO), and the absorbance was read at 570 nm. For the resazurin assay, the fluorescence intensity was read using a PolarStar Omega plate reader (BMG Labtech; Mornington VIC, Australia) at excitation/emission 560/590 nm. All assays were performed at least three times. […] La Jolla, CA). Both MTT and resazurin assays were performed three times, with two technical replicates in each assay.

[2] = MTT cytotoxicity assay in hRPTECs; format: cell-based, human; conditions: human, hRPTECs (passage 2); 72 h incubation; Mean ± Standard deviation, n = 3
Description: as §1

[3] = Resazurin cytotoxicity assay in hRPTECs; format: cell-based, human; conditions: human, hRPTECs (passage 2); 72 h incubation; Mean ± Standard deviation, n = 3
Description: as §1

[4] = Resazurin cytotoxicity assay in HK-2 cells; format: cell-based, human; conditions: human, HK-2 cells; 72 h incubation; Mean ± Standard deviation, n = 3
Description: as §1

M-CSF [5] = system: M-CSF; set-up: key: +: statistically significant increase; −: no significant increase; conditions: published in vivo data; ref Razzaque and Taguchi [2002]; Menke et al. [2009]; cited from earlier work
KIM-1 = conditions: published in vivo data; ref Vaidya et al. [2006]; cited from earlier work
M-CSF mRNA = M-CSF mRNA qRT-PCR in HK-2 cells; format: cell-based, human; set-up: key to Upregulation of M-CSF HK-2 R: +: statistically significant increase; −: no significant increase; conditions: for Upregulation of M-CSF HK-2 R: mRNA levels, 72 h time point
Description: Hs00273334_m1), Lcn2 (NGAL; Hs01008571_m1), and Csf1 (M-CSF; Hs00174164_m1). All probes span an exon-exon junction. The real-time quantitative reverse transcription PCR (qRT-PCR) was performed in a 10 μl final reaction mixture using a ViiA 7TM system (Applied Biosystems®, Sydney, NSW, Australia) based on the following thermo cycling conditions: 10 min at 95°C for one cycle, 15 sec at 95°C, 60 sec at 60°C for 40 cycles. The ViiA 7TM software was used for data analysis with Hprt1 expression used for normalization. All assays were performed at least three times, with at least two technical replicates in each assay.

M-CSF [6] = assay: M-CSF protein ELISA in HK-2 cells; format: cell-based, human; set-up: key: +: statistically significant increase; −: no significant increase; conditions: protein levels in culture medium; 72 h time point
Description: Sandwich-ELISA experiments were conducted following the manufacturer's instructions with slight modifications. A 96-well microplate (MaxiSorp®, Nunc, Thermo Scientific, NSW, Australia) was coated with 100 μL of capture antibodies (diluted 1:200 in PBS) and incubated overnight. The plate was then washed twice with washing buffer (0.05% Tween 20 in PBS, pH 7.4) and blocked by adding 300 μL of blocking buffer (1% bovine serum albumin (BSA) in PBS) for 1 h at room temperature. After washing two times with PBS, 100 μL of samples (cell culture media or cell lysates) or standards were then added to each well and incubated for 2 h at room temperature. The biotinylated detection antibodies were then diluted in blocking buffer, added to each well and incubated for 2 h. Horseradish peroxidase (HRP)-labeled streptavidin (100 μL) was then added to bind to detection antibodies. To each well, 100 μL of substrate solution (1:1 mixture of H2O2 and tetramethylbenzidine) was added and incubated for 20 min before reaction termination with 50 μL of stop solution (2N H2SO4). The optical density of each well was measured at 450 nm using a POLARstar Omega plate reader (BMG Labtech). All assays were performed at least three times, with at least two technical replicates in each assay.

HK-2 cells = assay: MTT cytotoxicity assay in HK-2 cells; format: cell-based, human; conditions: 72 h incubation; Mean ± Standard deviation, n = 3
Description: as §1

hRPTECs = assay: MTT cytotoxicity assay in hRPTECs; format: cell-based, human; conditions: 72 h incubation; Mean ± Standard deviation, n = 3
Description: as §1

Row | Compound | CC50 at 72 h [1] | CC50 at 72 h [2] | CC50 at 72 h [3] | CC50 at 72 h [4] | Upregulation of M-CSF in vivo (M-CSF [5]) | Upregulation of KIM-1 in vivo (KIM-1) | M-CSF mRNA level in HK-2 cells (M-CSF mRNA; 72 h exposure, P < 0.005) | Upregulation of M-CSF HK-2 R (M-CSF mRNA) | Upregulation of M-CSF HK-2 P (M-CSF [6]) | CC50 (HK-2 cells) | CC50 (hRPTECs)
1 | CNC(C)C1CCC(N)C(OC2C(N)CC(N)C(OC3OCC(C)(O)C(NC)C3O)C2O)O1 (stereo not shown) [Gentamicin, gentamicin sulfate] | > 1000 µM | > 1000 µM | > 1000 µM | > 1000 µM |  |  |  |  |  |  | 
2 | N.N.[Cl][Pt][Cl] [Cisplatin, cisplatin] |  |  |  |  | + (Razzaque and Taguchi [2002]; Menke et al. [2009]) | >5-fold (Vaidya et al. [2006]) | clearly increased | + | − |  | 
3 | Colistin sulfate |  |  |  |  |  |  |  | − | − | > 300 µM | > 300 µM
